ChEMBL document CHEMBL1201862, “PubChem BioAssay data set” (2004)
Where a name gives a salt, the structure may show the parent alone.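 Following 48 hours of exposure in 96-well plates, responses at five concentrations were used to interpolate endpoints linearly. At the GI50, growth is halved.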 Calls of active or inactive are those of the source. Rule as the data show it: active = GI50 up to about 1.1 µM and inactive = higher.

How the values were obtained:
Assay in all cases: inhibition of tumour cell growth, NCI panel, 48 h
DMS-273 = system: DMS-273
HOP-18 = system: HOP-18
KM-20L2 = system: KM-20L2
SNB-78 = system: SNB-78
XF498 = system: XF498
DLD-1 = system: DLD-1
RXF 631 = system: RXF 631
DMS-114 = system: DMS-114
BT-549 = system: BT-549

`Cc1cc2c(=O)cc(-c3ccncc3)oc2c(C(N)=O)c1C` was tested, and the GI50 (DMS-273) was > 100 µM (inactive), the GI50 (HOP-18) was > 100 µM (inactive) and the GI50 (KM-20L2) was > 100 µM (inactive). The GI50 (SNB-78) was > 100 µM (inactive) and the GI50 (XF498) was > 100 µM (inactive).

`O=C1CC[C@H]2CNC(=O)C[C@H]2C1` was tested, and the GI50 (DLD-1) was > 100 µM (inactive), the GI50 (DMS-273) was > 100 µM (inactive) and the GI50 (RXF 631) was > 100 µM (inactive). The GI50 (SNB-78) was > 100 µM (inactive) and the GI50 (XF498) was > 100 µM (inactive).

With `O=C(Cc1ccccc1[N+](=O)[O-])C(CO)c1ccccc1[N+](=O)[O-]` (stereo unspecified) the GI50 (DLD-1) was > 100 µM (inactive), the GI50 (DMS-114) was 67.1 µM (inactive) and the GI50 (DMS-273) was > 100 µM (inactive). The GI50 (HOP-18) was 4.17 µM (inactive), the GI50 (KM-20L2) was > 100 µM (inactive) and the GI50 (SNB-78) was > 100 µM (inactive). The GI50 (XF498) was 20.8 µM (inactive).

With `N#Cc1ccc(C(C2C(=O)NC(=O)NC2=O)C2C(=O)NC(=O)NC2=O)cc1` the GI50 (DMS-273) was > 100 µM (inactive) and the GI50 (KM-20L2) was > 100 µM (inactive).

In the case of `COc1ccc(-c2c3c(n(C4OC(CO)C(O)C(O)C4O)c(=S)c2C#N)CC(C)(C)CC3=O)cc1` (stereo unspecified), the GI50 (BT-549) is reported as > 100 µM (inactive).

For `[B].c1ccc([Si](OCCN2CC2)(c2ccccc2)c2ccccc2)cc1`, the GI50 (BT-549) was 17.5 µM (inactive).

In the case of `CC(=O)[C@@H]1C/C(=C\OCc2ccccc2)O[C@H]1C`, the GI50 (BT-549) is reported as > 100 µM (inactive).

For `Cc1c(F)c(N)c2c(=O)cc(-c3ccc(NC(=O)C(N)CCCNC(=N)N)c(F)c3)oc2c1F` (stereo unspecified), the GI50 (BT-549) was 21.8 µM (inactive).

`C/N=c1/oc2ccccc2cc1C(N)=O` was tested, and the GI50 (BT-549) was > 100 µM (inactive).

With `COc1ccc2nc(N/N=C/C(C)=N/Nc3cc(C)c4cc(OC)ccc4n3)cc(C)c2c1` the GI50 (BT-549) was 74.3 µM (inactive).

`C/C(=N\NC(=S)NC(CCC(=O)O)C(=O)O)c1cnccn1` (stereo unspecified) was tested, and the GI50 (DLD-1) was > 100 µM (inactive), the GI50 (DMS-114) was > 100 µM (inactive) and the GI50 (HOP-18) was > 100 µM (inactive). The GI50 (KM-20L2) was > 100 µM (inactive), the GI50 (RXF 631) was > 100 µM (inactive) and the GI50 (SNB-78) was > 100 µM (inactive). For the same molecule, the GI50 (XF498) was > 100 µM (inactive).

For `COC1OC(OC)C2C(c3c(C)cc(C)cc3C)=NOC12` (stereo unspecified), the GI50 (DLD-1) was > 100 µM (inactive), the GI50 (DMS-273) was > 100 µM (inactive) and the GI50 (HOP-18) was > 100 µM (inactive). For the same molecule, the GI50 (KM-20L2) was > 100 µM (inactive), the GI50 (SNB-78) was > 100 µM (inactive) and the GI50 (XF498) was > 100 µM (inactive).

With `Nc1ccc2nc(N)n[n+]([O-])c2c1` the GI50 (BT-549) was > 100 µM (inactive).

`COc1cc(CSc2ccc(O)cc2)cc(O)c1O` was tested, and the GI50 (BT-549) was 18.3 µM (inactive).

In the case of `O=C(/C=C/c1ccc(-c2ccccc2)cc1)c1ccccc1`, the GI50 (DLD-1) is reported as 26.3 µM (inactive), the GI50 (DMS-114) is reported as 14.6 µM (inactive) and the GI50 (HOP-18) is reported as > 100 µM (inactive). The GI50 (RXF 631) was 25.2 µM (inactive), the GI50 (SNB-78) was 29 µM (inactive) and the GI50 (XF498) was 25.2 µM (inactive).

`CCC/C(=N/NC(=O)C(N)=O)C(CC)C(=O)CCC(=O)N(Cc1ccccc1)Cc1ccccc1` (stereo unspecified) was tested, and the GI50 (DMS-114) was > 100 µM (inactive), the GI50 (DMS-273) was > 100 µM (inactive) and the GI50 (HOP-18) was > 100 µM (inactive). For the same molecule, the GI50 (KM-20L2) was > 100 µM (inactive), the GI50 (RXF 631) was > 100 µM (inactive) and the GI50 (SNB-78) was > 100 µM (inactive). The GI50 (XF498) was > 100 µM (inactive).

`CCOC(=O)N1CCN(c2ccc3ccc(N)nc3n2)CC1` was tested, and the GI50 (BT-549) was > 100 µM (inactive).

In the case of `COc1ccc(/C=N\N2C(=O)Cc3ccccc32)cc1`, the GI50 (DLD-1) is reported as > 100 µM (inactive), the GI50 (DMS-273) is reported as > 100 µM (inactive) and the GI50 (HOP-18) is reported as > 100 µM (inactive). The GI50 (KM-20L2) was > 100 µM (inactive), the GI50 (SNB-78) was 91.2 µM (inactive) and the GI50 (XF498) was 27.4 µM (inactive).

With `Cc1cccc2c(=O)cc(-c3ccccc3)[nH]c12` the GI50 (DLD-1) was 4.31 µM (inactive), the GI50 (DMS-114) was 3.95 µM (inactive) and the GI50 (DMS-273) was 3.57 µM (inactive). For the same molecule, the GI50 (KM-20L2) was 4.07 µM (inactive) and the GI50 (XF498) was 3.01 µM (inactive).

With `COc1ccccc1NC(=O)CC(=O)N1N=C(N2c3ccccc3Sc3ccccc32)CC1c1ccccc1` (stereo unspecified) the GI50 (BT-549) was > 100 µM (inactive).

For `O=c1n(-c2ccc(Cl)c(Cl)c2)c(=O)n(-c2ccc(Cl)c(Cl)c2)c(=O)n1-c1ccc(Cl)c(Cl)c1`, the GI50 (BT-549) was 2.88 µM (inactive).

With `COc1ccc2c3c([nH]c2c1[N+](=O)[O-])C(C)=NCC3` the GI50 (DLD-1) was 99.1 µM (inactive), the GI50 (DMS-114) was > 100 µM (inactive) and the GI50 (DMS-273) was 41.7 µM (inactive). For the same molecule, the GI50 (KM-20L2) was 69.3 µM (inactive), the GI50 (RXF 631) was > 100 µM (inactive) and the GI50 (SNB-78) was > 100 µM (inactive).

For `CCCCCCCCCCCCCCCCCCNc1ccn(C2OC(COP(=O)(O)OCC3CCC(n4cnc5c(=O)[nH]cnc54)O3)C(O)C2O)c(=O)n1` (stereo unspecified), the GI50 (BT-549) was > 100 µM (inactive).

`O=C1C(Cl)=C(N(C(=O)c2ccccc2)C(=O)c2ccccc2)C(=O)c2ccccc21` was tested, and the GI50 (BT-549) was 9.04 µM (inactive).

For `N#CC1=C(N)OC(c2ccc([N+](=O)[O-])cc2)C1(C#N)C#N` (stereo unspecified), the GI50 (BT-549) was 17.1 µM (inactive).

`CCOC(=O)C1C(=O)C=C(c2cc(C)ccc2O)CC1c1cccc(Br)c1` (stereo unspecified) was tested, and the GI50 (BT-549) was 24.9 µM (inactive).

In the case of `Cc1ccc(-c2c(C#N)c(-c3ccccc3)n(NS(=O)(=O)c3ccc(C)cc3)c(=O)c2C#N)cc1`, the GI50 (BT-549) is reported as 22.9 µM (inactive).

With `O=C(CCl)Nc1cc(Cl)c(Cl)cc1Cl` the GI50 (BT-549) was 1.77 µM (inactive).

`Cc1nn(-c2ccccc2)c2nc3c(c(C)nn3-c3ccccc3)c(-c3ccccc3Br)c12` was tested, and the GI50 (BT-549) was > 100 µM (inactive).

In the case of `Cc1ccc(/N=C2/SC(c3ccc(C)cc3)(c3ccc(C)cc3)c3ccccc32)cc1`, the GI50 (BT-549) is reported as > 100 µM (inactive).

`O=C(O)Cn1ccc(=O)c2c([N+](=O)[O-])cccc21` was tested, and the GI50 (BT-549) was > 100 µM (inactive).

With `O=S(=O)(c1ccc(/N=N/O)nc1)c1ccc2ccccc2c1` the GI50 (BT-549) was > 100 µM (inactive).

In the case of `Cc1cccc(-c2cc(O)c3cccnc3n2)c1`, the GI50 (BT-549) is reported as > 100 µM (inactive).

In the case of `C=C1C(=O)O[C@@H]2C[C@]3(C)CC[C@]4(C)[C@H](CC[C@@H]5[C@@]6(C)CCC(=O)C(C)(C)[C@@H]6CC[C@]54C)[C@H]3[C@H]12` [OCHRACEOLIDE A], the GI50 (BT-549) is reported as 16.1 µM (inactive).

`NCCc1cc(O)c(O)cc1O` [OXIDOPAMINE HYDROCHLORIDE] was tested, and the GI50 (BT-549) was 16.6 µM (inactive).
